Results from ChEMBL document CHEMBL5291721, “A preclinical secondary pharmacology resource illuminates target-adverse drug reaction associations of marketed drugs” (Nat Commun, 2023).

Key:
[1] = biological target: Gamma-aminobutyric acid receptor subunit alpha-1 (Rattus norvegicus, UniProt P62813); type: functional
[2] = biological target: Kappa-type opioid receptor (Homo sapiens, UniProt P41145)
[3] = biological target: D(3) dopamine receptor (Homo sapiens, UniProt P35462)
[4] = biological target: T1, 5-hydroxytryptamine receptor 1A (Homo sapiens, UniProt P08908); type: functional, cell-based
T1 sequence (P08908 whole entry): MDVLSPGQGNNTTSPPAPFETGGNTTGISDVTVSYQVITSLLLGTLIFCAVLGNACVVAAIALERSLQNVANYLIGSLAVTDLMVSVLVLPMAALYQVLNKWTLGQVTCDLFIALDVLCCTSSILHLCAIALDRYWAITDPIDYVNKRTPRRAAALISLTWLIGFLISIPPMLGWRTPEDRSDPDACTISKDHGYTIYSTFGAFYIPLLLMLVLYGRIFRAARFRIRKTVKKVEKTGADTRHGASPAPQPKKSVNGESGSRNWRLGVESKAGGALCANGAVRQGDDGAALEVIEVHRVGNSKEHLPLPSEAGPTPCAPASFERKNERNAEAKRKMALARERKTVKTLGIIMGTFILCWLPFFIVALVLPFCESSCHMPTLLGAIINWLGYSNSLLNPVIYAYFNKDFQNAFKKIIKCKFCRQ

[5] = biological target: T1, 5-hydroxytryptamine receptor 1A; type: functional, cell-based; remark: listed apart in the source
[6] = biological target: T2, Cholecystokinin receptor type A (Homo sapiens, UniProt P32238)
T2 sequence (P32238 whole entry): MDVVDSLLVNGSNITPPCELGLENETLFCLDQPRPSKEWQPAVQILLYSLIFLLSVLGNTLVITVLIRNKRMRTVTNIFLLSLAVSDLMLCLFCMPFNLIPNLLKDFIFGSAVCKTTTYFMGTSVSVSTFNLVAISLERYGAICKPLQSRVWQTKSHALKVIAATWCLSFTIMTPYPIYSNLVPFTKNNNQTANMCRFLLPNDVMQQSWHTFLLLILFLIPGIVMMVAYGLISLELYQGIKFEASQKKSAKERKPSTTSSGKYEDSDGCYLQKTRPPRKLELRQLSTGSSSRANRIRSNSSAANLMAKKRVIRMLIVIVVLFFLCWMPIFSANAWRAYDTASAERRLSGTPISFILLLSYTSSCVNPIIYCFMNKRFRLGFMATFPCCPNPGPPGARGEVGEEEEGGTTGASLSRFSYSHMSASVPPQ

[7] = biological target: Vasopressin V1a receptor (Homo sapiens, UniProt P37288)
Sequence of Vasopressin V1a receptor (P37288 whole entry): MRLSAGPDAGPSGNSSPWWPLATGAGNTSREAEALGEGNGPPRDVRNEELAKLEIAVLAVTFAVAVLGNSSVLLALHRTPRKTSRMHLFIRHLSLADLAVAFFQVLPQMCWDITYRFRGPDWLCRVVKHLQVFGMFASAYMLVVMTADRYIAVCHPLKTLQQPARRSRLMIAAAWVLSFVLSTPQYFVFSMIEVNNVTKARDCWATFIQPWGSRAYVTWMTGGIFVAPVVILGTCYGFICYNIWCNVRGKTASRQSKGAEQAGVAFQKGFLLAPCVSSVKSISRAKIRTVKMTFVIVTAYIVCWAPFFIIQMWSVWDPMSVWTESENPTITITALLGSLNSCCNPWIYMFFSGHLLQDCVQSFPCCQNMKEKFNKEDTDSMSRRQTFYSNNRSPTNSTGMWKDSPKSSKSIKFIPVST

[8] = biological target: Neuronal acetylcholine receptor subunit alpha-4 (Homo sapiens, UniProt P43681)
Sequence of Neuronal acetylcholine receptor subunit alpha-4 (P43681 whole entry): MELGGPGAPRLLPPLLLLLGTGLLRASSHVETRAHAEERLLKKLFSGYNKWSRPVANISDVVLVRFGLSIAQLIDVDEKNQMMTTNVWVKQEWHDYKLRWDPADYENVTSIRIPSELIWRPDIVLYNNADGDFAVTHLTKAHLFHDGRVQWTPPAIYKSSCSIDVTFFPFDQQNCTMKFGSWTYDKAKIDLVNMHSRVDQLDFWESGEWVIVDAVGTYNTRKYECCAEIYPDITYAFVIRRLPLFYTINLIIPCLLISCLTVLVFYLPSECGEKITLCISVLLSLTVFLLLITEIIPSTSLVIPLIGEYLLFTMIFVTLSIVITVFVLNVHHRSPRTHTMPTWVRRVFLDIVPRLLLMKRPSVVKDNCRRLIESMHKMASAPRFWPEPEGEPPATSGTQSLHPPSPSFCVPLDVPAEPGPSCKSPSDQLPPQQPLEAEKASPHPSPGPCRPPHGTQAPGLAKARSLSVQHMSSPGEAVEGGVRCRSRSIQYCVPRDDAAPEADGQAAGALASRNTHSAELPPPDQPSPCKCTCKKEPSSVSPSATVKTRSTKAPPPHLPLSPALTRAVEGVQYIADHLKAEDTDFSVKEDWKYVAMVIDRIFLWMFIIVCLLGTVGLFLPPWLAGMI

[9] = biological target: T3, Alpha-1A adrenergic receptor (Homo sapiens, UniProt P35348); type: functional, cell-based
T3 sequence (P35348 whole entry): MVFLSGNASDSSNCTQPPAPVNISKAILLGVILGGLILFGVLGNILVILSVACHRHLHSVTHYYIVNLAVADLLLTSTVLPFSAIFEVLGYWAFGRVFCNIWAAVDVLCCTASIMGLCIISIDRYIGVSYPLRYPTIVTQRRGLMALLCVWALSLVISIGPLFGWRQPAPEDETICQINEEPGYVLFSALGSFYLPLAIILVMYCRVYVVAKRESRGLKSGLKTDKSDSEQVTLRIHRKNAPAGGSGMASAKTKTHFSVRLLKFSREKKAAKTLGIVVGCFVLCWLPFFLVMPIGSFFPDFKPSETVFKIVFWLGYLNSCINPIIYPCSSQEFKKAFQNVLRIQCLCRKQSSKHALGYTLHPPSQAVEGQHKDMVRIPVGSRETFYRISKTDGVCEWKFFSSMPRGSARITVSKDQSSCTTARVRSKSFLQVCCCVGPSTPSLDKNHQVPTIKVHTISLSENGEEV

[10] = biological target: T3, Alpha-1A adrenergic receptor
[11] = biological target: 3',5'-cyclic-AMP phosphodiesterase 4D (Homo sapiens, UniProt Q08499); type: functional
Sequence of 3',5'-cyclic-AMP phosphodiesterase 4D (Q08499 whole entry): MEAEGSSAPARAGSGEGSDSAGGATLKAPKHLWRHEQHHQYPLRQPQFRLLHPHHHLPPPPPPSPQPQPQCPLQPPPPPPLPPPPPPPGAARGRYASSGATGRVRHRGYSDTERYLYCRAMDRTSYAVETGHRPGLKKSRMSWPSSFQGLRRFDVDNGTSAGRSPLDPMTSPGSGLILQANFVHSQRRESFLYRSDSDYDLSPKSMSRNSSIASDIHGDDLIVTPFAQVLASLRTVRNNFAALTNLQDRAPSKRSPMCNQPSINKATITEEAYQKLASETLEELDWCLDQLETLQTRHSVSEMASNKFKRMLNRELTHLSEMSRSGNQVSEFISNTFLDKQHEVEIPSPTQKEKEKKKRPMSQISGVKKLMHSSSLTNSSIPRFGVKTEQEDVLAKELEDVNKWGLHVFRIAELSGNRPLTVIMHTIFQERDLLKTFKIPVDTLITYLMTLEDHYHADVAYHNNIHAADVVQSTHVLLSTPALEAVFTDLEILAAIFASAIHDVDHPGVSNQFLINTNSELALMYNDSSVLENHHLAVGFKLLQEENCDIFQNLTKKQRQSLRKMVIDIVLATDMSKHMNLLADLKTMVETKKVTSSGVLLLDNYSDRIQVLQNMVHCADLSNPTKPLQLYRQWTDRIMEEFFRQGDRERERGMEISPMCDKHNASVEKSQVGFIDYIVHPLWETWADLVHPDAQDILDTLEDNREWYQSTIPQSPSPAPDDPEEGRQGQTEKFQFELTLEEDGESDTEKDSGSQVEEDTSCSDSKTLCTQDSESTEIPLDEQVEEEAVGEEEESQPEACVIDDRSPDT

[12] = biological target: T4, Muscarinic acetylcholine receptor M1 (Homo sapiens, UniProt P11229); type: functional, cell-based
T4 sequence (P11229 whole entry): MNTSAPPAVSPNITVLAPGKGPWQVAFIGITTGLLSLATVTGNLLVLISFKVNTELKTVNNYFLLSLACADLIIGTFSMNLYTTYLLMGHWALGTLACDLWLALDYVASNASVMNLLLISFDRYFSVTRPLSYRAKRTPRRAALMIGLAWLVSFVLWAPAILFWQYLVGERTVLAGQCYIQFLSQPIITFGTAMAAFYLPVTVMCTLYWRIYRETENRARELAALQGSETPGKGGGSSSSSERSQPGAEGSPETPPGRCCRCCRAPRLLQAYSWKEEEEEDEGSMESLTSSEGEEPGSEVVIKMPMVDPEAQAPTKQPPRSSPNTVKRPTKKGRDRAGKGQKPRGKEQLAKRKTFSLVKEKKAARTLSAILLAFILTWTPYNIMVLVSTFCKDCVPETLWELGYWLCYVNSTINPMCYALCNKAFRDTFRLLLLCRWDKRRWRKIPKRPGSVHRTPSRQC
Further: assay procedure not described here.

Sequence of D(3) dopamine receptor (P35462 whole entry): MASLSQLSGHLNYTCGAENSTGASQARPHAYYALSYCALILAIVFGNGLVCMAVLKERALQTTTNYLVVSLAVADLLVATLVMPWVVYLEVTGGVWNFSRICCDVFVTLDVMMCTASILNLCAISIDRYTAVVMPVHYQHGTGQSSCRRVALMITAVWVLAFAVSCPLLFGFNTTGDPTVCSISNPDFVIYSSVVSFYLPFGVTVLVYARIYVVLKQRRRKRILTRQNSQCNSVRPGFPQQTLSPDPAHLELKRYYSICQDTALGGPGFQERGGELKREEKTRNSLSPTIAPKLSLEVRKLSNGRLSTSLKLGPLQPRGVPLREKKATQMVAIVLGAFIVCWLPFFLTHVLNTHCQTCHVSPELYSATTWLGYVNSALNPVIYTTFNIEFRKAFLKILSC
Sequence of Kappa-type opioid receptor (P41145 whole entry): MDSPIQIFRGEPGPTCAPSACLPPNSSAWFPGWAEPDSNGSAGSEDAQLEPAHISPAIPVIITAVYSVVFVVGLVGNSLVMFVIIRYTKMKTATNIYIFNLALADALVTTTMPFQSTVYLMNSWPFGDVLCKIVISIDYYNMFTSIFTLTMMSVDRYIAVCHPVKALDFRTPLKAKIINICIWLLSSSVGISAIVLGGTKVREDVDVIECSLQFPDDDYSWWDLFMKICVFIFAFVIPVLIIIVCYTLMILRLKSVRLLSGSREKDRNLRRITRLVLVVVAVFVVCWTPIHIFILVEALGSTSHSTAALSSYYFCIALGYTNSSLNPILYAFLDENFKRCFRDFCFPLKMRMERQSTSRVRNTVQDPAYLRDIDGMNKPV
Sequence of Gamma-aminobutyric acid receptor subunit alpha-1 (P62813 whole entry): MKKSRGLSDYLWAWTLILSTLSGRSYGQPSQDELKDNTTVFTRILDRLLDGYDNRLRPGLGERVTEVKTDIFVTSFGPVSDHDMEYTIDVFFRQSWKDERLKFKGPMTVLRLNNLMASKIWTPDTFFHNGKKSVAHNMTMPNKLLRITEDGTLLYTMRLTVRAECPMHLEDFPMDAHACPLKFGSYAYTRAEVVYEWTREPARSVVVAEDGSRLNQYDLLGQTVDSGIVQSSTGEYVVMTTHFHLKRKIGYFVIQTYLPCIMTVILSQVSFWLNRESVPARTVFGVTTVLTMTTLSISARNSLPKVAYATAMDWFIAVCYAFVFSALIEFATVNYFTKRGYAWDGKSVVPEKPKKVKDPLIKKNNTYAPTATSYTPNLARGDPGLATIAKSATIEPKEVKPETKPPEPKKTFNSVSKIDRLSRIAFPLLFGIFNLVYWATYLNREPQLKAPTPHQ

O=C1c2ccccc2C(=O)C1c1ccccc1 [PHENINDIONE]
AC50 [1]: > 10 µM | AC50 [2]: > 10 µM | AC50 [3]: > 30 µM | AC50 [4]: > 30 µM | AC50 [5]: > 30 µM | AC50 [6]: > 10 µM | AC50 [7]: > 10 µM | AC50 [8]: > 10 µM | AC50 [9]: > 30 µM | AC50 [10]: > 10 µM | AC50 [11]: > 30 µM

COc1cccc(C(=O)CCN[C@@H](C)[C@H](O)c2ccccc2)c1 [OXYFEDRINE]
AC50 [12]: > 30 µM

C[C@]12C=CC(=O)C=C1CC[C@@H]1[C@@H]2CC[C@]2(C)OC(=O)CC[C@@H]12 [TESTOLACTONE]
AC50 [1]: > 10 µM | AC50 [2]: > 10 µM | AC50 [3]: > 30 µM | AC50 [4]: > 10 µM | AC50 [5]: > 30 µM | AC50 [6]: > 10 µM | AC50 [7]: > 10 µM | AC50 [8]: > 10 µM | AC50 [9]: > 30 µM | AC50 [10]: > 10 µM | AC50 [11]: > 30 µM

CCCSc1nc(N[C@@H]2C[C@H]2c2ccc(F)c(F)c2)c2nnn([C@@H]3C[C@H](OCCO)[C@@H](O)[C@H]3O)c2n1 [TICAGRELOR]
AC50 [12]: 8.29 µM

C[C@H](N[C@@H](CCc1ccccc1)C(=O)O)C(=O)N1Cc2ccccc2C[C@H]1C(=O)O
AC50 [12]: > 30 µM

C/C=C(/C(=C/C)c1ccc(O)cc1)c1ccc(O)cc1 [DIENESTROL]
AC50 [1]: > 10 µM | AC50 [2]: > 10 µM | AC50 [3]: > 30 µM | AC50 [4]: > 10 µM | AC50 [5]: > 10 µM | AC50 [6]: > 10 µM | AC50 [7]: > 10 µM | AC50 [8]: > 10 µM | AC50 [10]: > 10 µM | AC50 [11]: > 30 µM

CN(C)CCCN1c2ccccc2CCc2ccccc21 [IMIPRAMINE]
AC50 [1]: > 10 µM | AC50 [3]: 0.41 µM | AC50 [4]: > 10 µM | AC50 [5]: > 10 µM | AC50 [6]: > 30 µM | AC50 [7]: > 10 µM | AC50 [9]: 0.41 µM | AC50 [10]: 0.0804 µM | AC50 [11]: > 10 µM

CN(Cc1cnc2nc(N)nc(N)c2n1)c1ccc(C(=O)N[C@@H](CCC(=O)O)C(=O)O)cc1 [METHOTREXATE]
AC50 [1]: > 10 µM | AC50 [2]: > 10 µM | AC50 [3]: > 30 µM | AC50 [4]: > 10 µM | AC50 [5]: > 10 µM | AC50 [6]: > 30 µM | AC50 [7]: > 30 µM | AC50 [8]: > 10 µM | AC50 [9]: > 30 µM | AC50 [10]: > 10 µM | AC50 [11]: > 30 µM

CCC[C@@H]1C[C@@H](C(=O)N[C@@H]([C@H]2O[C@H](SC)[C@H](O)[C@@H](O)[C@H]2O)[C@@H](C)O)N(C)C1 [LINCOMYCIN]
AC50 [1]: > 10 µM | AC50 [2]: > 10 µM | AC50 [3]: > 30 µM | AC50 [4]: > 10 µM | AC50 [5]: > 30 µM | AC50 [6]: > 10 µM | AC50 [7]: > 10 µM | AC50 [8]: > 10 µM | AC50 [9]: > 30 µM | AC50 [10]: > 10 µM | AC50 [11]: > 30 µM

C[N+]1(C)CCC(=C(c2ccccc2)c2ccccc2)CC1
AC50 [1]: > 10 µM | AC50 [2]: > 10 µM | AC50 [3]: > 30 µM | AC50 [4]: > 10 µM | AC50 [5]: > 10 µM | AC50 [6]: > 30 µM | AC50 [7]: > 30 µM | AC50 [8]: 16.2 µM | AC50 [10]: > 10 µM | AC50 [11]: > 30 µM

CNCCc1ccc(OC(=O)C(C)C)c(OC(=O)C(C)C)c1 [IBOPAMINE]
AC50 [1]: > 30 µM | AC50 [2]: > 30 µM | AC50 [3]: 0.767 µM | AC50 [4]: > 30 µM | AC50 [5]: > 30 µM | AC50 [6]: > 30 µM | AC50 [7]: > 30 µM | AC50 [8]: > 30 µM | AC50 [10]: > 30 µM | AC50 [11]: > 30 µM

C=C1c2cccc(O)c2C(=O)C2=C(O)[C@]3(O)C(=O)C(C(N)=O)=C(O)[C@@H](N(C)C)[C@@H]3[C@@H](O)[C@H]12 [METHACYCLINE]
AC50 [1]: > 10 µM | AC50 [2]: > 10 µM | AC50 [3]: > 30 µM | AC50 [4]: > 10 µM | AC50 [5]: > 10 µM | AC50 [6]: > 30 µM | AC50 [7]: > 30 µM | AC50 [8]: > 30 µM | AC50 [10]: > 10 µM | AC50 [11]: > 30 µM

CN(C)Cc1nnc2n1-c1ccc(Cl)cc1C(c1ccccc1)=NC2 [ADINAZOLAM]
AC50 [1]: 0.19 µM | AC50 [2]: 3.29 µM | AC50 [3]: > 30 µM | AC50 [4]: > 10 µM | AC50 [5]: > 10 µM | AC50 [6]: > 10 µM | AC50 [7]: > 10 µM | AC50 [8]: > 10 µM | AC50 [10]: > 10 µM | AC50 [11]: > 30 µM
